{"source": "PubChem BioAssay AID1259407", "about": "(Chemical Carcinogenesis Research Information System (CCRIS), 2018)", "test_system": "CCRIS mutagenicity, Ames/micronucleus/aberration tests", "experiment": "CCRIS mutagenicity studies", "key": {"[1]": {"details": "Test System: AMES SALMONELLA TYPHIMURIUM, Strain/Indicator: TA97, Metabolic Activation: NONE, Method: STANDARD PLATE"}, "[2]": {"details": "Test System: AMES SALMONELLA TYPHIMURIUM, Strain/Indicator: TA98, Metabolic Activation: NONE, Method: STANDARD PLATE"}, "[3]": {"details": "Test System: AMES SALMONELLA TYPHIMURIUM, Strain/Indicator: TA100, Metabolic Activation: NONE, Method: STANDARD PLATE"}, "[4]": {"details": "Test System: MOUSE LYMPHOMA, Strain/Indicator: L5178Y (TK+/TK-), Metabolic Activation: NONE, Method: SUSPENSION/PLATE"}}, "note": "Activity calls are given as the source filed them. No rule for the calls is given here."}
{"smiles": "O=C1C=CC(=O)C=C1", "values": [{"measurement": "mutagenic call", "setting": "[1]", "value": "inactive; negative"}, {"measurement": "mutagenic call", "setting": "Test System: AMES SALMONELLA TYPHIMURIUM, Strain/Indicator: TA97, Metabolic Activation: RAT, LIVER, S-9, AROCLOR 1254, Method: PREINCUBATION", "value": "inactive; negative"}, {"measurement": "mutagenic call", "setting": "Test System: AMES SALMONELLA TYPHIMURIUM, Strain/Indicator: TA97, Metabolic Activation: RAT, LIVER, S-9, PCB, Method: STANDARD PLATE", "value": "inactive; negative"}, {"measurement": "mutagenic call", "setting": "Test System: AMES SALMONELLA TYPHIMURIUM, Strain/Indicator: TA97, Metabolic Activation: RAT, LIVER, S-9, PHENOBARBITAL, Method: PREINCUBATION", "value": "inactive; negative"}, {"measurement": "mutagenic call", "setting": "[2]", "value": "inactive; negative"}, {"measurement": "mutagenic call", "setting": "Test System: AMES SALMONELLA TYPHIMURIUM, Strain/Indicator: TA98, Metabolic Activation: RAT, LIVER, S-9, AROCLOR 1254, Method: PREINCUBATION", "value": "inactive; negative"}, {"measurement": "mutagenic call", "setting": "Test System: AMES SALMONELLA TYPHIMURIUM, Strain/Indicator: TA98, Metabolic Activation: RAT, LIVER, S-9, PCB, Method: STANDARD PLATE", "value": "inactive; negative"}, {"measurement": "mutagenic call", "setting": "Test System: AMES SALMONELLA TYPHIMURIUM, Strain/Indicator: TA98, Metabolic Activation: RAT, LIVER, S-9, PHENOBARBITAL AND 5,6-BENZOFLAVONE, Method: PREINCUBATION", "value": "inactive; negative"}, {"measurement": "mutagenic call", "setting": "Test System: AMES SALMONELLA TYPHIMURIUM, Strain/Indicator: TA98, Metabolic Activation: RAT, LIVER, S-9, PHENOBARBITAL, Method: PREINCUBATION", "value": "active; positive"}, {"measurement": "mutagenic call", "setting": "Test System: AMES SALMONELLA TYPHIMURIUM, Strain/Indicator: TA100, Metabolic Activation: NONE, Method: FLUCTUATION TEST", "value": "inactive; negative"}, {"measurement": "mutagenic call", "setting": "Test System: AMES SALMONELLA TYPHIMURIUM, Strain/Indicator: TA100, Metabolic Activation: NONE, Method: PREINCUBATION", "value": "inactive; negative"}, {"measurement": "mutagenic call", "setting": "[3]", "value": "inactive; negative"}, {"measurement": "mutagenic call", "setting": "Test System: AMES SALMONELLA TYPHIMURIUM, Strain/Indicator: TA100, Metabolic Activation: RAT, LIVER, S-9, AROCLOR 1254, Method: PREINCUBATION", "value": "inactive; negative"}, {"measurement": "mutagenic call", "setting": "Test System: AMES SALMONELLA TYPHIMURIUM, Strain/Indicator: TA100, Metabolic Activation: RAT, LIVER, S-9, PCB, Method: FLUCTUATION TEST", "value": "active; positive"}, {"measurement": "mutagenic call", "setting": "Test System: AMES SALMONELLA TYPHIMURIUM, Strain/Indicator: TA100, Metabolic Activation: RAT, LIVER, S-9, PCB, Method: STANDARD PLATE", "value": "inactive; negative"}, {"measurement": "mutagenic call", "setting": "Test System: AMES SALMONELLA TYPHIMURIUM, Strain/Indicator: TA100, Metabolic Activation: RAT, LIVER, S-9, PHENOBARBITAL, Method: PREINCUBATION", "value": "active; positive"}, {"measurement": "mutagenic call", "setting": "Test System: AMES SALMONELLA TYPHIMURIUM, Strain/Indicator: TA102, Metabolic Activation: NONE, Method: PREINCUBATION", "value": "inactive; negative"}, {"measurement": "mutagenic call", "setting": "Test System: AMES SALMONELLA TYPHIMURIUM, Strain/Indicator: TA102, Metabolic Activation: RAT, LIVER, S-9, AROCLOR 1254, Method: PREINCUBATION", "value": "inactive; negative"}, {"measurement": "mutagenic call", "setting": "Test System: AMES SALMONELLA TYPHIMURIUM, Strain/Indicator: TA102, Metabolic Activation: RAT, LIVER, S-9, PHENOBARBITAL AND 5,6-BENZOFLAVONE, Method: PREINCUBATION", "value": "inactive; negative"}, {"measurement": "mutagenic call", "setting": "Test System: AMES SALMONELLA TYPHIMURIUM, Strain/Indicator: TA104, Metabolic Activation: RAT, LIVER, S-9, AROCLOR 1254, Method: PREINCUBATION", "value": "inactive; negative"}, {"measurement": "mutagenic call", "setting": "Test System: AMES SALMONELLA TYPHIMURIUM, Strain/Indicator: TA104, Metabolic Activation: RAT, LIVER, S-9, PHENOBARBITAL AND 5,6-BENZOFLAVONE, Method: PREINCUBATION", "value": "inactive; negative"}, {"measurement": "mutagenic call", "setting": "Test System: AMES SALMONELLA TYPHIMURIUM, Strain/Indicator: TA1535, Metabolic Activation: NONE, Method: PREINCUBATION", "value": "inactive; negative"}, {"measurement": "mutagenic call", "setting": "Test System: AMES SALMONELLA TYPHIMURIUM, Strain/Indicator: TA1535, Metabolic Activation: RAT, LIVER, S-9, AROCLOR 1254, Method: PREINCUBATION", "value": "inactive; negative"}, {"measurement": "mutagenic call", "setting": "Test System: AMES SALMONELLA TYPHIMURIUM, Strain/Indicator: TA2637, Metabolic Activation: NONE, Method: PREINCUBATION", "value": "inactive; negative"}, {"measurement": "mutagenic call", "setting": "Test System: AMES SALMONELLA TYPHIMURIUM, Strain/Indicator: TA2637, Metabolic Activation: RAT, LIVER, S-9, PHENOBARBITAL AND 5,6-BENZOFLAVONE, Method: PREINCUBATION", "value": "inactive; negative"}, {"measurement": "mutagenic call", "setting": "Test System: CHINESE HAMSTER V-79, Strain/Indicator: V-79/6-THIOGUANINE, Metabolic Activation: NONE", "value": "active; positive"}, {"measurement": "mutagenic call", "setting": "[4]", "value": "active; positive"}]}
{"smiles": "C=C1C[C@@H]2CC[C@]34C[C@@H]5O[C@@H]6[C@H](O[C@H]7CC[C@H](CC(=O)O[C@@H]8[C@H](C)[C@@H]9O[C@@H]%10C[C@]%11(C[C@@H]%12O[C@@]%13(C[C@H](C)[C@@H]%12O%11)C[C@H](C)[C@@H]%11O[C@@H]([C@@H](O)C[C@H](O)CO)C[C@H]%11O%13)O[C@@H]%10C[C@@H]9O[C@H]8C[C@@H]8O[C@H](CC[C@@H]1O2)C[C@H](C)C8=C)O[C@@H]7[C@H]6O3)[C@H]5O4", "values": [{"measurement": "mutagenic call", "setting": "Test System: Mouse lymphoma, Strain/Indicator: L5178Y (tk+/tk-), Metabolic Activation: None, Method: Suspension/plate", "value": "inactive; negative"}, {"measurement": "mutagenic call", "setting": "Test System: Mouse lymphoma, Strain/Indicator: L5178Y (tk+/tk-), Metabolic Activation: Rat, Liver, S-9, Aroclor 1254, Method: Suspension/plate", "value": "active; equivocal (previous evaluation positive)"}]}
{"smiles": "COc1ccc(/C=C/c2cc(OC)cc(=O)o2)cc1", "values": [{"measurement": "mutagenic call", "setting": "Test System: Mouse lymphoma cells, Strain/Indicator: L5178Y ( tk+/tk-), Metabolic Activation: Human, Liver, S-9, Method: Suspension/plate", "value": "inactive; negative"}]}
{"smiles": "COc1ccc(C(c2ccc(OC)cc2)C(Cl)(Cl)Cl)cc1", "values": [{"measurement": "mutagenic call", "setting": "Test System: CHINESE HAMSTER OVARY, Strain/Indicator: CHO-K1-BH4 (HGPRT)/6-THIOGUANINE, Metabolic Activation: NONE, Method: SUSPENSION/PLATE", "value": "inactive; negative"}, {"measurement": "mutagenic call", "setting": "Test System: CHINESE HAMSTER OVARY, Strain/Indicator: CHO-K1-BH4 (HGPRT)/6-THIOGUANINE, Metabolic Activation: S-9, Method: SUSPENSION/PLATE", "value": "inactive; negative"}, {"measurement": "mutagenic call", "setting": "Test System: E. COLI, Strain/Indicator: WP2 UVRA, Metabolic Activation: HAMSTER, LIVER, S-9, AROCLOR 1254, Method: STANDARD PLATE", "value": "inactive; negative"}, {"measurement": "mutagenic call", "setting": "Test System: E. COLI, Strain/Indicator: WP2 UVRA, Metabolic Activation: HAMSTER, LIVER, S-9, Method: STANDARD PLATE", "value": "inactive; negative"}, {"measurement": "mutagenic call", "setting": "Test System: E. COLI, Strain/Indicator: WP2 UVRA, Metabolic Activation: MOUSE, LIVER, S-9, AROCLOR 1254, Method: STANDARD PLATE", "value": "inactive; negative"}, {"measurement": "mutagenic call", "setting": "Test System: E. COLI, Strain/Indicator: WP2 UVRA, Metabolic Activation: MOUSE, LIVER, S-9, Method: STANDARD PLATE", "value": "inactive; negative"}, {"measurement": "mutagenic call", "setting": "Test System: E. COLI, Strain/Indicator: WP2 UVRA, Metabolic Activation: NONE, Method: STANDARD PLATE", "value": "inactive; negative"}, {"measurement": "mutagenic call", "setting": "Test System: E. COLI, Strain/Indicator: WP2 UVRA, Metabolic Activation: RAT, LIVER, S-9, AROCLOR 1254, Method: STANDARD PLATE", "value": "inactive; negative"}, {"measurement": "mutagenic call", "setting": "Test System: E. COLI, Strain/Indicator: WP2 UVRA, Metabolic Activation: RAT, LIVER, S-9, Method: STANDARD PLATE", "value": "inactive; negative"}, {"measurement": "mutagenic call", "setting": "[4]", "value": "inactive; negative"}, {"measurement": "mutagenic call", "setting": "Test System: MOUSE LYMPHOMA, Strain/Indicator: L5178Y (TK+/TK-), Metabolic Activation: RAT, LIVER, S-9, AROCLOR 1254, Method: SUSPENSION/PLATE", "value": "active; positive"}, {"measurement": "mutagenic call", "setting": "Test System: MOUSE LYMPHOMA, Strain/Indicator: L5178Y (TK+/TK-), Metabolic Activation: RAT, LIVER, S-9, Method: SUSPENSION/PLATE", "value": "active; positive"}, {"measurement": "mutagenic call", "setting": "Test System: MOUSE LYMPHOMA, Strain/Indicator: L5178Y (TK+/TK-), Metabolic Activation: S-9, Method: SUSPENSION/PLATE", "value": "active; positive"}]}
{"smiles": "Fc1ccccn1", "values": [{"measurement": "mutagenic call", "setting": "[1]", "value": "inactive; negative"}, {"measurement": "mutagenic call", "setting": "Test System: AMES SALMONELLA TYPHIMURIUM, Strain/Indicator: TA97, Metabolic Activation: RAT, LIVER, S-9, AROCLOR 1254, Method: STANDARD PLATE", "value": "inactive; negative"}, {"measurement": "mutagenic call", "setting": "[2]", "value": "inactive; negative"}, {"measurement": "mutagenic call", "setting": "Test System: AMES SALMONELLA TYPHIMURIUM, Strain/Indicator: TA98, Metabolic Activation: RAT, LIVER, S-9, AROCLOR 1254, Method: STANDARD PLATE", "value": "active; positive"}, {"measurement": "mutagenic call", "setting": "[3]", "value": "inactive; negative"}, {"measurement": "mutagenic call", "setting": "Test System: AMES SALMONELLA TYPHIMURIUM, Strain/Indicator: TA100, Metabolic Activation: RAT, LIVER, S-9, AROCLOR 1254, Method: STANDARD PLATE", "value": "inactive; negative"}, {"measurement": "mutagenic call", "setting": "Test System: AMES SALMONELLA TYPHIMURIUM, Strain/Indicator: TA102, Metabolic Activation: NONE, Method: STANDARD PLATE", "value": "inactive; negative"}, {"measurement": "mutagenic call", "setting": "Test System: AMES SALMONELLA TYPHIMURIUM, Strain/Indicator: TA102, Metabolic Activation: RAT, LIVER, S-9, AROCLOR 1254, Method: STANDARD PLATE", "value": "inactive; negative"}]}
{"smiles": "Brc1ccc(CN2[C@@H]3c4ccccc4-c4ccccc4[C@@H]32)cc1", "note": "(some centres not stated)", "values": [{"measurement": "mutagenic call", "setting": "[3]", "value": "active; positive"}]}
